Data reported in patent publication US20210346459A1, “Application of Dalargin for the prevention of VRIs and prevention of the development of complications during VRIs” (priority 2020, published 2021).
Values after ≈ are worked out from the molar mass of the structure shown. Where two headings read alike, the source gives them in different places. Marks after values point to notes of the source that are not given here.

What was measured:
mu receptors = mu receptors (Homo sapiens, UniProt P35372); settings: metabolite of Dalargin; cited from earlier work
mu receptors, sequence (P35372 whole entry): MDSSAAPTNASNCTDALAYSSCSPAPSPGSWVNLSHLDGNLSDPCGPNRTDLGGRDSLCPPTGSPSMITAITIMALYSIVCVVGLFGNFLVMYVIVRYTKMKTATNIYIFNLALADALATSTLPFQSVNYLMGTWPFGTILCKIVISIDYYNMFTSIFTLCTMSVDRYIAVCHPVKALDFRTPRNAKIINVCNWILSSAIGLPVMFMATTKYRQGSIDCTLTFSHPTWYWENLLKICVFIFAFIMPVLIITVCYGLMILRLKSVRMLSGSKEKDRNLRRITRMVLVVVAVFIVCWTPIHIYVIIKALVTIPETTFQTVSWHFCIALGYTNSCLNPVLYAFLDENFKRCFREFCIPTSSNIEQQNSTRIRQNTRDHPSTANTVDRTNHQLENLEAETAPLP

[1] = tested on: influenza virus A/California/04/2009; type: in vivo, mice
[2] = tested on: influenza virus A/Puerto Rico/8/34 (H1N1)
MDCK = test: 50% cytotoxic concentration, cell line used for influenza virus; settings: PR8 (influenza virus) section
[3] = tested on: influenza virus A/Puerto Rico/8/34 (H1N1); type: in vivo, Balb/c mice; settings: Group 2: Tamiflu 20 mg/kg once a day intragastrically
human adenovirus 5 [4] = test: organism not typed; settings: Vero
human adenovirus 5 [5] = tested on: human adenovirus 5
in vitro = settings: African green monkey
[6] = Group 3: Arbidol 130 mg/kg intragastrically once a day, therapeutic
[7] = Group 3: Arbidol 130 mg/kg intragastrically once a day, therapeutic, 30 animals
[8] = Group 2: Ingavirin 15 mg/kg intragastrically once a day, therapeutic
[9] = Group 2: Ingavirin 15 mg/kg intragastrically once a day, therapeutic, 30 animals

## Tyr-D-Ala-Gly-Phe
Mu receptors
  Affinity to mu receptors: exhibits affinity to mu receptors

## CCOC(=O)c1c(CSc2ccccc2)n(C)c2cc(Br)c(O)c(CN(C)C)c12 [Arbidol]
[1]; [6]
  Mortality, %: 70.00%
  Protective index, %: 27.59%
[1]; [7]
  Mortality by day 5: 2
  Mortality by day 6: 2
  Mortality by day 7: 7
  Mortality by day 8: 5
  Mortality by day 9: 3
  Mortality by day 10: 2
  Residue: 9

## CC(N)C12CC3CC(CC(C3)C1)C2 (stereo not shown) [Remantadin]
[2]; CC50/IC50, PR8 (influenza virus)
  SI: 5
[2]; PR8 (influenza virus), MDCK
  IC50: 11 µg/mL (≈ 61.3 µM)
[2]; influenza virus, MDCK
  Antiviral properties (in words): did not exhibit antiviral properties
MDCK
  CC50: 64 µg/mL (≈ 357 µM)

## CCOC(=O)C1=C[C@@H](OC(CC)CC)[C@H](NC(C)=O)[C@@H](N)C1 [Tamiflu, oseltamivir]
[3]
  Mortality, %: 10.00%
  Protective index, %: 88.46%
[3]; 30 animals
  Mortality by day 9: 2
  Mortality by day 10: 1
  Residue: 27*

## O=C(O)CCCC(=O)NCCc1c[nH]cn1 [Ingavirin]
[1]; [8]
  Mortality, %: 53.33%
  Protective index, %: 44.83%
[1]; [9]
  Mortality by day 6: 4
  Mortality by day 7: 6
  Mortality by day 8: 3
  Mortality by day 9: 2
  Mortality by day 10: 1
  Residue: 14
[1]; mouse, in vivo
  Mortality by day 5: 3
  Mortality by day 6: 4
  Mortality by day 7: 4
  Mortality by day 8: 7
  Mortality by day 9: 4
  Mortality by day 10: 2
  Mortality, %: 80.00%
  Protective index, %: 17.24%
  Residue: 6

## Nc1nc2c(ncn2COCCO)c(=O)[nH]1 [Aciclovir]
Human adenovirus 5 [4]
  IC50: > 30 µg/mL
Human adenovirus 5 [5]; CC50/IC50, Ad5 (adenovirus)
  SI: 1
Human adenovirus 5 [5]; adenovirus, Vero
  Antiviral properties (in words): did not exhibit antiviral properties
In vitro
  CC50: > 30 µg/mL
